We go through 2 compounds from patent US20040175691A1, “Use of the KCNQ2 and KCNQ3 genes for the discovery of agents useful in the treatment of neurological disorders” (priority 1998, published 2004).

One test addresses T1, KQT1 (Homo sapiens, UniProt P51787).
T1 construct: expressed in transfected cells; host or cells: oocytes (Xenopus)
Nature of the test: Blockade of cloned KQT1 channel in oocytes. The class given is cell-based.

The target in another test is T2, eag1 (Rattus norvegicus, UniProt Q63472).
T2 construct: expressed in transfected cells; host or cells: oocytes (Xenopus)
T2 sequence (Q63472 1-962): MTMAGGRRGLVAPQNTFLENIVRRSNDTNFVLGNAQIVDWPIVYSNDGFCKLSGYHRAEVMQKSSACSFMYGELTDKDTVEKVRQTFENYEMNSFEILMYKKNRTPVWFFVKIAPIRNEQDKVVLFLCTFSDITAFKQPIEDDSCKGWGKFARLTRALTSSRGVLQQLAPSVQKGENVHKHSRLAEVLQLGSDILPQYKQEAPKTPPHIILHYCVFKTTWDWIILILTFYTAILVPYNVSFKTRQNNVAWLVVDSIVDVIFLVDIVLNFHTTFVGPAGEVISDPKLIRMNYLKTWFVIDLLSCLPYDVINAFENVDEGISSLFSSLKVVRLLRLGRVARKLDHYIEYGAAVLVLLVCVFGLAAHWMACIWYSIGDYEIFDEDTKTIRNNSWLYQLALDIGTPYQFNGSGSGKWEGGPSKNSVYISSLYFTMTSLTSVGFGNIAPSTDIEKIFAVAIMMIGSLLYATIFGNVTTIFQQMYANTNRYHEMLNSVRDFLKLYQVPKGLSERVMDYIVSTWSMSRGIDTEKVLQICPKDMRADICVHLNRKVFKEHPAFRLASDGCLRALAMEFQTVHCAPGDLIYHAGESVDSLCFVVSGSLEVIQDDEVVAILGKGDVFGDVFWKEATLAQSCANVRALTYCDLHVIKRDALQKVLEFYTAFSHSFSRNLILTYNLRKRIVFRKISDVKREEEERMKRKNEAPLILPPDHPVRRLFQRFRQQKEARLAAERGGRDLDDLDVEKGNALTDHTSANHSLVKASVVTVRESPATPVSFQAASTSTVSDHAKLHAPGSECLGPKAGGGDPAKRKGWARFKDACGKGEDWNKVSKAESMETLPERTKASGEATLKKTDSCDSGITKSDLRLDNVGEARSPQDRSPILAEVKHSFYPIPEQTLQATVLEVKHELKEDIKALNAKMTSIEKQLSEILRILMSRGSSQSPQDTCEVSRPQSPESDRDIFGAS
The experiment in a line: Blockade of cloned eag1 channel in oocytes. The class given is cell-based. Conditions: mean±s.e.m., blockade incomplete.

The target in the next test is T3, hKCNQ2 potassium channel (Homo sapiens, UniProt O43526, DEL417-446).
T3 construct: Full-length hKCNQ2 cDNAs were amplified from adult human brain cDNA; expressed in transfected cells; host or cells: 293 EBNA (HEK 293E) cells, episomal plasmid pm3AR-hKCNQ2-1, hygromycin B selection
The experiment in a line: Membrane potential-evoked fluorescence (FLIPR, DiBAC) in HEK 293E cells stably expressing hKCNQ2. The class given is cell-based. To be noted: DiBAC-loaded HEK 293E hKCNQ2 cells, FIG. 6. As to the method: The ability of KCNQ2 modulators to alter membrane potential was assessed using a fluorescence imaging plate reader (FLIPR). Cultured HEK 293E cells expressing hKCNQ2 channels are plated on poly-D-lysine-coated 96-well Costar microplates (#3603) at 300,000-750,000 cells/ml and allowed to reach confluence in DMEM (with 10% FBS and 250 ug/ml hygromycin B) at 37° C. and 5% CO2. After reaching confluence, growth medium is removed, replaced with a standard Hank's balanced salt solution containing 5 uM dibac(4)3, bis-oxonol (Molecular Probes # B-438) at 37° C. The cell plate is then placed in the recording chamber (equilibrated to 37° C.) of a fluorescence imaging plate reader (FLIPR; Molecular Devices) along with two drug plates (one containing standard Hank's balanced salt solution+dibac and the other containing standard Hank's balanced salt solution+dibac+test compound at various experimental concentrations).
These cells were loaded with the voltage-sensitive fluorescent dye, DiBAC, that distributes across cell membranes in a voltage-dependent manner. As cells depolarize (become more positive inside), more dye enters the cells and an increase in fluorescence occurs.
In FIG. 7, the relative effects of several M-current modulators on the flourescence of HEK 293E cells stably expressing the hKCNQ2 potassium channel is shown. These cells were loaded with the voltage-sensitive fluorescent dye, DiBAC, that distributes across cell membranes in a voltage-dependent manner. As cells depolarize, more dye enters the cells and an increase in fluorescence occurs. Conversely, as cells hyperpolarize (become more negative inside), more dye leaves the cells and a decrease in fluorescence occurs.

Test [1] concerns phasic sympathetic neurons. The experiment in a line: Firing properties of phasic sympathetic neurons from the SCG. It is filed as cell-based, rat. Conditions: 10 μM. Here is the method:
(§1) Method: Recordings of the M-current in sympathetic neurons in intact ganglia were performed at room temperature as described previously (Wang and McKinnon, 1995). The standard extracellular recording solution was: NaCl (133 mM, KCl (4.7 mM), NaH2PO4 (1.3 mM), NaHCO3 (16.3 mM), CaCl2 (2 mM), MgCl2 (1.2 mM) and glucose (1.4 g/liter), bubbled with 95% O2-5% CO2 to give pH 7.2-7.4.

The next test concerns the target T4, M-current (Rattus norvegicus, UniProt O88943+O88944).
T4 construct: from tissue
The experiment in a line: Blockade of native M-current in SCG neurons (voltage clamp, intact ganglia). It is filed as cell-based. Conditions: native M-current, SCG neurons; mean±s.e.m. Here is the method: as §1
A. Blockade of M-current in SCG neurons by XE991. Holding potential was −30 mV and step potential was −50 mV for 1 second. The shift in holding current following drug application is due to the inhibition of M-current activated at the holding potential.
Maximal block of native M-current was 93±2%. Data points are averages and error bars represent s.e.m.

T1 sequence (P51787 whole entry): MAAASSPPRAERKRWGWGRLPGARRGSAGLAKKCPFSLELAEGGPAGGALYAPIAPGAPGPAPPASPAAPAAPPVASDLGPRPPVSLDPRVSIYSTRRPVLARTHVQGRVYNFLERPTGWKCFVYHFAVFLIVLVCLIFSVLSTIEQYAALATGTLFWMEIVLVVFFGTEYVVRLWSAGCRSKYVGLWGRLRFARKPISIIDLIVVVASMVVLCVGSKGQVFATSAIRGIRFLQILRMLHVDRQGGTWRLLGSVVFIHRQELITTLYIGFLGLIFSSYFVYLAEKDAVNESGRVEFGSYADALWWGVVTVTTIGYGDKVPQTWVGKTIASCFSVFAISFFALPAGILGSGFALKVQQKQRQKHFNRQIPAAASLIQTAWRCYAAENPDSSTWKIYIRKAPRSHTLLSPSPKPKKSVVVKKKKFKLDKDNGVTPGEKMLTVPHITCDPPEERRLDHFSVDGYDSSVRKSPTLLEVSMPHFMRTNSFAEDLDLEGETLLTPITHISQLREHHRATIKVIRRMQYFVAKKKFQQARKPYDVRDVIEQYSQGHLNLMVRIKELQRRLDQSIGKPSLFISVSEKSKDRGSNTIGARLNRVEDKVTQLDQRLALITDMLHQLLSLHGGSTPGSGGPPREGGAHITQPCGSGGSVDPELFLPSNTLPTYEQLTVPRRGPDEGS

For `O=C1N(c2ccccc2)c2ccccc2C1(Cc1ccncc1)Cc1ccncc1` [Linopirdine, 3,3-bis(4-pyridinylmethyl)-1-phenylindolin-2-one], the IC50 against KQT1 is 8.9 ± 0.9 µM; on eag1, 31 ± 3 µM. Besides, the “Change in fluorescence (membrane depolarization)” value at hKCNQ2 potassium channel was “time- and concentration-dependent increase in flourescence”.

Regarding `O=C1c2ccccc2C(Cc2ccncc2)(Cc2ccncc2)c2ccccc21` [XE991, 10,10-bis(4-pyridinylmethyl)-9(10H)-anthracenone], the “Effect on firing properties of phasic neurons” value in test [1] is reported as “converts the firing properties from phasic to tonic”. Also, the IC50 against eag1 was found to be 49 ± 6 µM; against M-current it was 0.98 ± 0.15 µM.

The IC50 is the concentration at which inhibition is half-maximal. Low values mean greater potency, high ones weaker potency.
